Reference: patent US20220306695A1, “COMPSTATIN ANALOGUES AND THEIR MEDICAL USES” (priority 2019, published 2022)
Starred links: 1 amine or outer side, 2 acyl side, 3 side chain; linkers in the order of their positions; H or OH if unused. Positions of bridges follow the written chain, without caps; N, C: chain ends. Non-standard residues stand in square brackets, D forms with d. Residues, ends and D or L forms follow the SMILES beside them. Groups on a side chain read outwards from the residue. *: point of attachment. Trp(1-Me) = Cn1cc(C[C@H](N)C(=O)O)c2ccccc21; Abu(4-yl) = O=C([C@H](CC[*:3])N[*:1])[*:2]; C18 diacid = O=C(O)CCCCCCCCCCCCCCCCC(=O)*; γGlu = O=C(O)[C@H](CCC(=O)[*:2])N[*:1]; AEEA = NCCOCCOCC(=O)O; Sar = CNCC(=O)O

System: classical complement pathway
Experiment: In vitro haemolysis assay (inhibition of classical complement pathway)
Assay type: cell-based, human
Conditions: Table 3; human serum, sensitized sheep red blood cells; read-out: IC50[nM], in vitro analysis of inhibition of hemolysis
Description: Method The in vitro effect of test compounds was assessed by measuring their inhibitory effect of the classical complement pathway in a haemolysis assay. Briefly, test compounds and reference compounds were dissolved in DMSO and diluted in Tris/Casein Assay Buffer (10 mM Tris, 145 mM NaCl, 0.5 mM MgCl2, 0.15 mM CaCl2, and 0.1% W/V Casein, adjusted to pH 7.4) as 9-point serial dilutions in a 96 well plate. Sensitized sheep red blood cells (RBC) coated with rabbit anti-sheep erythrocyte antiserum (Complement Technology, Inc., TX, USA) were washed in Tris/Casein Assay Buffer. 50 μL from each well of diluted compound was added to a 96-well plate containing 50 μL diluted human serum (Complement Technology, Inc., TX, USA) and incubated for 15 minutes at room temperature. The serum dilution factor was optimized for every serum batch to obtain 70-90% of maximal haemolysis using the protocol. Then 50 μL sensitized sheep red blood cells were added to all wells ([…] per well). After 30 minutes of incubation at 37° C. with gentle agitation, the reaction was stopped by addition of 50 μL Tris STOP Buffer per well (10 mM EDTA, 10 mM Tris, 145 mM NaCl adjusted to pH 7.4). The RBCs were then removed by centrifugation and the resulting supernatant measured for hemolysis by absorbance at 405 nm. The response was normalized relative to a positive and negative control (vehicle) to calculate the IC50 from the concentration response curve using the 4-parameter logistic (4PL) nonlinear model for curve fitting.

| SMILES | IC50 [nM] |
| --- | --- |
| CC[C@H](C)[C@@H]1NC(=O)[C@@H](NC(=O)[C@H](Cc2ccc(O)cc2)NC(=O)[C@H](C)NC(=O)[C@H](CO)NC(=O)CNC(=O)[C@H](CCC(=O)O)NC(C)=O)CSSC[C@@H](C(=O)N(C)CC(=O)N[C@@H](CCC(=O)O)C(=O)NCC(=O)N[C@@H](CCCCN)C(=O)N[C@@H](CCCCNC(=O)CC[C@H](NC(=O)CNC(=O)CC[C@H](NC(=O)CCCCCCCCCCCCCCCCC(=O)O)C(=O)O)C(=O)O)C(N)=O)NC(=O)[C@H](CCCNC(=N)N)NC(=O)[C@H](Cc2c[nH]cn2)NC(=O)[C@H](CCC(=O)O)NC(=O)CNC(=O)[C@H](Cc2c[nH]c3ccccc23)NC(=O)[C@H](CC(=O)O)NC(=O)[C@H](CCC(N)=O)NC(=O)[C@H](Cc2cn(C)c3ccccc23)NC1=O [Compound 110] (Ac-EGSAYCI[Trp(1-Me)]QDWGEHRC[Sar]EGKK([γGlu-Gly-γGlu-C18 diacid])-NH2; disulfide 6-16) | < 250 |
| CC[C@H](C)[C@@H]1NC(=O)[C@@H](NC(=O)[C@H](Cc2ccccc2)NC(=O)[C@H](CCC(=O)O)NC(C)=O)CSCC[C@@H](C(=O)N(C)CC(=O)N[C@@H](CCC(=O)O)C(=O)N[C@@H](C)C(=O)NCCOCCOCC(=O)NCCOCCOCC(=O)N[C@@H](CCCCNC(=O)CC[C@H](NC(=O)CNC(=O)CC[C@H](NC(=O)CCCCCCCCCCCCCCCCC(=O)O)C(=O)O)C(=O)O)C(N)=O)NC(=O)[C@H](CCCNC(=N)N)NC(=O)[C@H](Cc2c[nH]cn2)NC(=O)[C@H](CCC(=O)O)NC(=O)CNC(=O)[C@H](Cc2c[nH]c3ccccc23)NC(=O)[C@H](CCC(=O)O)NC(=O)[C@H](CCC(N)=O)NC(=O)[C@H](Cc2cn(C)c3ccccc23)NC1=O [Compound 158, Ac-EFA(1)I[1-Me-Trp]QEWGEHRhC(1)[Sar]EA[Peg3][Peg3]-K([17-carboxy-heptadecanoyl][γGlu]G[γGlu])-NH2] (Ac-EFCI[Trp(1-Me)]QEWGEHR[Abu(4-yl)][Sar]EA[AEEA][AEEA]K([γGlu-Gly-γGlu-C18 diacid])-NH2; thioether 3-13) | < 250 |
| CC[C@H](C)[C@@H]1NC(=O)[C@@H](NC(=O)[C@H](Cc2ccc(O)cc2)NC(=O)[C@H](CCC(=O)O)NC(=O)[C@H](CO)NC(C)=O)CSSC[C@@H](C(=O)N(C)CC(=O)N[C@@H](CCC(=O)O)C(=O)NCC(=O)N[C@@H](CCC(=O)O)C(=O)NCCOCCOCC(=O)NCCOCCOCC(=O)N[C@@H](CCCCNC(=O)CC[C@H](NC(=O)CNC(=O)CC[C@H](NC(=O)CCCCCCCCCCCCCCCCC(=O)O)C(=O)O)C(=O)O)C(N)=O)NC(=O)[C@H](CCCNC(=N)N)NC(=O)[C@H](Cc2c[nH]cn2)NC(=O)[C@H](CCC(=O)O)NC(=O)CNC(=O)[C@H](Cc2c[nH]c3ccccc23)NC(=O)[C@H](CC(=O)O)NC(=O)[C@H](CCC(N)=O)NC(=O)[C@H](Cc2cn(C)c3ccccc23)NC1=O [Compound 117] (Ac-SEYCI[Trp(1-Me)]QDWGEHRC[Sar]EGE[AEEA][AEEA]K([γGlu-Gly-γGlu-C18 diacid])-NH2; disulfide 4-14) | < 250 |
| CC[C@H](C)[C@@H]1NC(=O)[C@@H](NC(=O)[C@H](Cc2ccccc2)NC(=O)[C@H](CCC(=O)O)NC(=O)[C@H](CO)NC(C)=O)CCSC[C@@H](C(=O)N[C@H](C(=O)N[C@@H](CCC(=O)O)C(=O)NCC(=O)N[C@@H](CCC(=O)O)C(=O)NCCOCCOCC(=O)N[C@@H](CCC(=O)O)C(=O)N[C@@H](CO)C(=O)N[C@@H](CCCCNC(=O)CC[C@H](NC(=O)CCCCCCCCCCCCCCCCC(=O)O)C(=O)O)C(N)=O)[C@@H](C)O)NC(=O)[C@H](CCCNC(=N)N)NC(=O)[C@H](Cc2c[nH]cn2)NC(=O)[C@H](CCC(=O)O)NC(=O)CNC(=O)[C@H](Cc2c[nH]c3ccccc23)NC(=O)[C@H](CC(=O)O)NC(=O)[C@H](CCC(N)=O)NC(=O)[C@H](Cc2cn(C)c3ccccc23)NC1=O [Compound 165] (Ac-SEF[Abu(4-yl)]I[Trp(1-Me)]QDWGEHRCTEGE[AEEA]ESK([γGlu-C18 diacid])-NH2; thioether 4-14) | < 250 |
| CC[C@H](C)[C@H](NC(C)=O)C(=O)N[C@H]1CSSC[C@@H](C(=O)N[C@H](C(=O)N[C@@H](CCC(=O)O)C(=O)NCC(=O)N[C@@H](CCCCN)C(N)=O)[C@@H](C)O)NC(=O)[C@H](CCCNC(=N)N)NC(=O)[C@H](Cc2c[nH]cn2)NC(=O)[C@H](CCC(=O)O)NC(=O)CNC(=O)[C@H](Cc2c[nH]c3ccccc23)NC(=O)[C@H](CC(=O)O)NC(=O)[C@H](CCC(N)=O)NC(=O)[C@H](Cc2c[nH]c3ccccc23)NC(=O)[C@H]([C@@H](C)CC)NC1=O [Compound 39] (Ac-ICIWQDWGEHRCTEGK-NH2; disulfide 2-12) | < 100 |
| CC[C@H](C)[C@@H]1NC(=O)[C@@H](NC(=O)[C@@H](NC(=O)[C@H](CCC(=O)O)NC(=O)CNC(=O)[C@H](CCC(=O)O)NC(C)=O)[C@@H](C)CC)CSSC[C@@H](C(=O)N[C@@H](CCC(=O)O)C(=O)NCC(=O)N[C@@H](CCC(=O)O)C(N)=O)NC(=O)[C@H](CCCNC(=N)N)NC(=O)[C@H](Cc2c[nH]cn2)NC(=O)[C@H](CCC(=O)O)NC(=O)CNC(=O)[C@H](Cc2c[nH]c3ccccc23)NC(=O)[C@H](CC(=O)O)NC(=O)[C@H](CCC(N)=O)NC(=O)[C@H](Cc2c[nH]c3ccccc23)NC1=O [Compound 35] (Ac-EGEICIWQDWGEHRCEGE-NH2; disulfide 5-15) | < 500 |
| CC[C@H](C)[C@@H]1NC(=O)[C@@H](NC(=O)[C@H](Cc2ccccc2)NC(=O)[C@H](CCC(=O)O)NC(=O)[C@H](CO)NC(C)=O)CCSC[C@@H](C(=O)N(C)CC(=O)N[C@@H](CCC(=O)O)C(=O)NCC(=O)N[C@@H](CCC(=O)O)C(=O)NCCOCCOCC(=O)NCCOCCOCC(=O)N[C@@H](CCCCNC(=O)CC[C@H](NC(=O)CNC(=O)CC[C@H](NC(=O)CCCCCCCCCCCCCCCCC(=O)O)C(=O)O)C(=O)O)C(N)=O)NC(=O)[C@H](CCCNC(=N)N)NC(=O)[C@H](Cc2c[nH]cn2)NC(=O)[C@H](CCC(=O)O)NC(=O)CNC(=O)[C@H](Cc2c[nH]c3ccccc23)NC(=O)[C@H](CCC(=O)O)NC(=O)[C@H](CCC(N)=O)NC(=O)[C@H](Cc2cn(C)c3ccccc23)NC1=O [Compound 167] (Ac-SEF[Abu(4-yl)]I[Trp(1-Me)]QEWGEHRC[Sar]EGE[AEEA][AEEA]K([γGlu-Gly-γGlu-C18 diacid])-NH2; thioether 4-14) | < 500 |
| CC[C@H](C)[C@H](NC(C)=O)C(=O)N[C@H]1CSSC[C@@H](C(=O)N[C@H](C(=O)N[C@@H](CCC(=O)O)C(N)=O)[C@@H](C)O)NC(=O)[C@H](CCCNC(=N)N)NC(=O)[C@H](Cc2c[nH]cn2)NC(=O)[C@H](CCC(=O)O)NC(=O)CNC(=O)[C@H](Cc2c[nH]c3ccccc23)NC(=O)[C@H](CC(=O)O)NC(=O)[C@H](CCC(N)=O)NC(=O)[C@H](Cc2c[nH]c3ccccc23)NC(=O)[C@H]([C@@H](C)CC)NC1=O [Compound 26] (Ac-ICIWQDWGEHRCTE-NH2; disulfide 2-12) | < 100 |
| CC[C@H](C)[C@@H]1NC(=O)[C@@H](NC(=O)[C@H](Cc2ccc(O)cc2)NC(=O)[C@H](CCC(=O)O)NC(=O)[C@H](CO)NC(C)=O)CSSC[C@@H](C(=O)N(C)CC(=O)N[C@@H](CCC(=O)O)C(=O)NCC(=O)N[C@@H](CCC(=O)O)C(=O)NCCOCCOCC(=O)NCCOCCOCC(=O)N[C@@H](CCCCNC(=O)CC[C@H](NC(=O)CNC(=O)CC[C@H](NC(=O)CCCCCCCCCCCCCCCCC(=O)O)C(=O)O)C(=O)O)C(N)=O)NC(=O)[C@H](CCCNC(=N)N)NC(=O)[C@H](Cc2c[nH]cn2)NC(=O)[C@H](CCC(=O)O)NC(=O)CNC(=O)[C@H](Cc2c[nH]c3ccccc23)NC(=O)[C@H](CCC(=O)O)NC(=O)[C@H](CCC(N)=O)NC(=O)[C@H](Cc2cn(C)c3ccccc23)NC1=O [Compound 125] (Ac-SEYCI[Trp(1-Me)]QEWGEHRC[Sar]EGE[AEEA][AEEA]K([γGlu-Gly-γGlu-C18 diacid])-NH2; disulfide 4-14) | < 500 |
